Measurements as given in US6169181A, “Compounds useful to treat retroviral infections” (Pharmacia & Upjohn Company, priority 1998, dated 2001).
Where “and” joins values, the source holds several entries; their conditions need not be identical. Identical values can stand only once. Like-named read-outs stand apart in the source and are kept apart here.

What was measured:
HIV-1 protease [1] = biological target: T1, HIV-1 protease (Human immunodeficiency virus type 1 group M subtype B, UniProt P04585); assay: biochemical
In short: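 A substrate biotinylated at the N-terminal arginine and FITC-labelled at the C-terminal lysine was incubated with HIV-1 protease (10 μl of 0.1 μM) and compound for 1 h in the dark at room temperature. Buffer was 0.1 M sodium acetate pH 5.5, 1.0 M NaCl, 0.05% NP-40. Labelled product was separated from substrate using streptavidin beads and filtration, and the fluorescence gave percent inhibition.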

[2] = biological target: T2, single chain tethered (tandem) HIV protease (HIV-1 M:B_HXB2R, UniProt P04585); assay: Tandem HIV protease assay; format: biochemical; conditions: read-out: FITC KI; Table II; enzyme HIV1TANDEM
T2 construct: purified enzyme, FITC/biotin substrate assay
In short: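 Covalently tethered single-chain HIV protease dimer allows very low enzyme levels for Ki measurement. N-biotinylated, C-fluorescein-labelled peptide substrate incubated with enzyme and inhibitor at pH 5.5 in the dark for 96 h; streptavidin beads stop reaction, cleaved product filtered off and residual fluorescence fitted to obtain Ki.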

HIV-1 protease [3] = biological target: T1, HIV-1 protease; assay: biochemical; conditions: Table II; enzyme HIV-1; read-out: FITC KI
In short: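 Biotinylated, FITC-labelled peptide substrate cleaved in 0.1 M sodium acetate pH 5.5, 1.0 M NaCl, 0.05% NP-40, room temperature. Filtered labelled product read by fluorescence; nonlinear least-squares fit.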

HIV-2 = biological target: T3, HIV-2 (Human immunodeficiency virus type 2 subtype A, UniProt P04584); assay: FITC Ki, enzyme HIV-2; format: biochemical; conditions: Table II
T3 construct: tested in the HIV protease screening assay and/or tandem HIV protease assay
T3 sequence (P04584 514-612 limits assumed): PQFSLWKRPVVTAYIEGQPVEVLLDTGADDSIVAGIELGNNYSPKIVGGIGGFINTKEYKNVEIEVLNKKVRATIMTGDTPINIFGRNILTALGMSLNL

[4] = Table II, enzyme HIV-1, DOSE 0.123 (unit not given)
[5] = Table II, enzyme HIV-1, DOSE 0.370 (unit not given)
[6] = Table II, enzyme HIV-1, DOSE 1.100 (unit not given)
[7] = Table II, enzyme HIV-1, DOSE 3.300 (unit not given)
[8] = Table II, enzyme HIV-1, DOSE 10.000 (unit not given)
[9] = Table II, enzyme HIV-1, DOSE 30.000 (unit not given)

| Compound | PROTEASE % INHIB. (HIV-1 protease [1]; [4]) [%] | PROTEASE % INHIB. (HIV-1 protease [1]; [5]) [%] | PROTEASE % INHIB. (HIV-1 protease [1]; [6]) [%] | PROTEASE % INHIB. (HIV-1 protease [1]; [7]) [%] | PROTEASE % INHIB. (HIV-1 protease [1]; [8]) [%] | PROTEASE % INHIB. (HIV-1 protease [1]; [9]) [%] | Ki [2] [nM] | Ki (HIV-1 protease [3]) [nM] | Ki (HIV-2) [nM] | PROTEASE % INHIB. (HIV-1 protease [1]) |
| --- | --- | --- | --- | --- | --- | --- | --- | --- | --- | --- |
| CCCC1(CCc2ccc(F)cc2)CC(O)=C(C(CC)c2cccc(NS(=O)(=O)c3ccc(C(N)=O)cn3)c2)C(=O)O1 (stereo not drawn) [Example 332, N-[3-{1-(4-Hydroxy-5,6-dihydro-2-oxo-6-(2-(4-fluorophenyl)ethyl)-6-propyl-2H-pyran-3-yl)propyl}phenyl]-5-carbamoylpyridine-2-sulfonamide] | 81.87 | 85.65 | 86.23 | 93.28 | 91.68 | 95.08 | 0.4 | 1.6 |  |  |
| CCC(C1=C(O)C2CCCCC2OC1=O)c1cccc(NS(=O)(=O)c2ccc(C#N)cn2)c1 (stereo not drawn) [Example 370] | 92.81 | 87.87 | 102.89 | 109.33 | 113.79 | 98.14 | 0.05 | 0.59 | 0.05 |  |
| CCC[C@]1(CCc2ccc(F)cc2)CC(O)=C([C@H](c2cccc(NS(=O)(=O)c3ccc(C#N)cn3)c2)C(C)(C)C)C(=O)O1 (single isomer, unassigned) [Example 348, N-[3-{1(S or R)-(4-Hydroxy-5,6-dihydro-2-oxo-6(S or R)-(2-(4-fluorophenyl)ethyl)-6-propyl-2H-pyran-3-yl)-2,2-dimethyl-propyl}phenyl]-5-cyanopyridine-2-sulfonamide] | 53.47 | 78.32 | 89.84 | 92.96 | 96.28 | 84.67 | 1.96 |  |  |  |
| N#Cc1ccc(S(=O)(=O)Nc2cccc(CC3=C(O)CC(CCc4ccccc4)(CCc4ccccc4)OC3=O)c2)nc1 [Example 353, N-[3-{1-(4-Hydroxy-5,6-dihydro-2-oxo-6,6-bis(2-phenylethyl)-2H-pyran-3-yl)methyl}phenyl]-5-cyanopyridine-2-sulfonamide] | 51.83 | 68.49 | 70.71 | 63.96 | 51.8 | 43.93 | 5.3 | 10.4 |  |  |
| CCCC1(CCc2ccccc2)CC(O)=C(C(c2cccc(NS(=O)(=O)c3cn(C)cn3)c2)C(C)(C)C)C(=O)O1 (single isomer, unassigned) [Example 307, N-[3(R or S)-[1-(5,6-Dihydro-4-hydroxy-2-oxo-6(R or S)-[2-phenylethyl]-6-propyl-2H-pyran-3-yl)-2,2-dimethylopropyl]phenyl]-1-methyl-1H-imidazole-4-sulfonamide] | 77.39 | 99.85 | 107.87 | 93.34 | 83.49 | 69.74 | 0.072 |  |  |  |
| CCC[C@@]1(CCc2ccccc2)CC(O)=C([C@@H](c2cccc(NS(=O)(=O)c3ccc(C#N)cn3)c2)C(C)(C)C)C(=O)O1 (single isomer, unassigned) [Example 300, 5-Cyano-N-[3(R or S)-(1-[5,6-dihydro-4-hydroxy-2-oxo-6(R or S)-(2-phenylethyl)-6-propyl-2H-pyran-3-yl]-2,2-dimethylpropyl)-phenyl]-2-pyridinesulfonamide] |  |  |  |  |  |  | 0.1 |  |  | 90.61 and 99.05 and 111.45 and 109.19 and 105.56 and 104.91 |
| CCCC1(CCc2ccccc2)CC(O)=C(C(c2cccc(NS(=O)(=O)c3ccc(N)cn3)c2)C(C)(C)C)C(=O)O1 (stereo not drawn) [Example 299, 5-Amino-N-[3-(1-[5,6-dihydro-4-hydroxy-2-oxo-6-(2-phenylethyl)-6-propyl-2H-pyran-3-yl]-2,2-dimethylpropyl)phenyl]-2-pyridinesulfonamide] |  |  |  |  |  |  | 0.2 |  |  | 83.51 and 104.76 and 117.95 and 115.61 and 128.03 and 102.89 |
| CCC[C@@]1(CCc2ccccc2)CC(O)=C([C@H](CC)c2cccc(NS(=O)(=O)c3cn(C)cn3)c2)C(=O)O1 (single isomer, unassigned) [Example 339, N-[3-{1(R or S)-(4-Hydroxy-5,6-dihydro-2-oxo-6(R or S)-phenethyl-6-propyl-2H-pyran-3-yl)propyl}phenyl]-1-methyl-1H-imidazole-4-sulfonamide] |  |  |  |  |  |  | 0.12 |  |  | 83.49 and 100.6 and 101.42 and 104.71 and 91.38 and 72.86 |
| CCCC1(CCc2ccccc2)CC(O)=C(C(c2cccc(NS(=O)(=O)c3ccccn3)c2)C(C)(C)C)C(=O)O1 (single isomer, unassigned) [Example 278, N-[3-(R or S)-[1-[5,6-dihydro-4-hydroxy-2-oxo-6-(2-phenethyl)-[6-(R or S)-propyl]-2H-pyran-3-yl]-2,2-dimethylpropyl]phenyl]-2-pyridinesulfonamide] | 76.76 | 86.99 | 95.6 | 96.91 | 93.32 | 86.18 | 0.04 |  |  |  |
| CC(C)CC1(CC(C)C)CC(O)=C(C(c2cccc(NS(=O)(=O)c3ccc(C#N)cn3)c2)C(C)(C)C)C(=O)O1 (racemic) [Example 306, 5-Cyano-N-[3-(1-[5,6-dihydro-6,6-diisobutyl-4-hydroxy-2-oxo-2H-pyran-3-yl]-2,2-dimethylpropyl)-phenyl]-2-pyridinesulfonamide] | 71.79 | 82.71 | 89.3 | 97.29 | 82.59 | 53.43 | 0.04 |  |  |  |
| CCC[C@@]1(CCc2ccc(F)cc2)CC(O)=C([C@@H](c2cccc(NS(=O)(=O)c3cn(C)cn3)c2)C(C)(C)C)C(=O)O1 (single isomer, unassigned) [Example 349, N-[3-{1(R or S)-(4-Hydroxy-5,6-dihydro-2-oxo-6(R or S)-(2-(4-fluorophenyl)ethyl)-6-propyl-2H-pyran-3-yl)-2,2-dimethyl-propyl}phenyl]-1-methyl-1H-imidazole-4-sulfonamide] | 74.5 | 88.21 | 99.92 | 104.99 | 103.49 | 98.24 | 0.111 |  |  |  |
| CCC(C1=C(O)CC(CCc2ccccc2)(CCc2ccccc2)OC1=O)c1cccc(NS(=O)(=O)c2ccc(C#N)cn2)c1 (stereo not drawn) [Example 331, N-[3-{1-(4-Hydroxy-5,6-dihydro-2-oxo-6,6-bis(2-phenylethyl)-2H-pyran-3-yl)propyl}phenyl]-5-cyanopyridine-2-sulfonamide] | 99.76 | 104.06 | 108.51 | 99.3 | 103.28 | 93.3 | 0.272 |  |  |  |
| CCC[C@@]1(CCc2ccc(F)cc2)CC(O)=C([C@@H](c2cccc(NS(=O)(=O)c3ccc(N)cn3)c2)C(C)(C)C)C(=O)O1 (single isomer, unassigned) [Example 317, 5-Amino-N-[3(R or S)-(1-[6(R or S)-(2-[4-fluorophenyl]ethyl)-5,6-dihydro-4-hydroxy-2-oxo-6-propyl-2H-pyran-3-yl]-2,2-dimethyl-propyl)phenyl]-2-pyridine-sulfonamide] | 87.38 | 94.14 | 98.45 | 95.97 | 101.26 | 108.59 | 0.04 |  |  |  |
| CCC[C@@]1(CCc2ccccc2)CC(O)=C([C@@H](c2cccc(NS(=O)(=O)c3cn(C)cn3)c2)C(C)(C)C)C(=O)O1 (single isomer, unassigned) [Example 310, N-[3(R or S)-[1-(5,6-Dihydro-4-hydroxy-2-oxo-6(R or S)-[2-phenylethyl]-6-propyl-2H-pyran-3-yl)-2,2-dimethylpropyl]phenyl]-1-methyl-1H-imidazole-4-sulfonamide] | 16.81 | 50.11 | 78.69 | 100.22 | 124.77 | 110.91 | 1.5 |  |  |  |
